According to the supplement of paper PMC10307832:

Assays:
Test in all cases: relative viability (nuclei count vs DMSO), 5 days (fraction); higher = more cells survive
NCI-H23 = test system: NCI-H23
Procedure, shortened: (§1)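 Lung cancer cell lines were pin-tool dosed in 1536-well plates on the day after seeding, with either a lone drug or a fixed anchor-drug dose plus five library-drug doses (not always all listed) in √10 steps. Nuclei were counted on 4× images after 5 days. Relative viability is the ratio of treated-well to vehicle-well nuclei counts, with each value a median of duplicate plates.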

LU99A = test system: LU99A
Procedure, shortened: as §1

NCI-H650 = test system: NCI-H650
Procedure, shortened: as §1

NCI-H1650 = test system: NCI-H1650
Procedure, shortened: as §1

PC-3 [JPC-3] = test system: PC-3 [JPC-3]
Procedure, shortened: as §1

COR-L23 = test system: COR-L23
Procedure, shortened: as §1

NCI-H1651 = test system: NCI-H1651
Procedure, shortened: as §1

NCI-H2085 = test system: NCI-H2085
Procedure, shortened: as §1

HCC-366 = test system: HCC-366
Procedure, shortened: as §1

HCC-78 = test system: HCC-78
Procedure, shortened: as §1

H3255 = test system: H3255
Procedure, shortened: as §1

SMILES: Cc1csc(=NC2CCCCC2)n1/N=C/c1ccc(O)c(O)c1O [MIM1] + C[C@@H](Oc1cc(-c2cnn(C3CCNCC3)c2)cnc1N)c1c(Cl)ccc(F)c1Cl [Crizotinib] (partner 1 µM)
- relative viability (NCI-H23; first compound 0.2 µM): 0.554
- relative viability (NCI-H23; first compound 2 µM): 0.334
- relative viability (NCI-H23; first compound 6.325 µM): 0.487
- relative viability (NCI-H23; first compound 20 µM): 0.259
- relative viability (LU99A; first compound 0.2 µM): 0.56
- relative viability (LU99A; first compound 0.6325 µM): 0.538
- relative viability (LU99A; first compound 2 µM): 0.474
- relative viability (LU99A; first compound 6.325 µM): 0.481
- relative viability (LU99A; first compound 20 µM): 0.29
- relative viability (NCI-H650; first compound 0.2 µM): 0.649
- relative viability (NCI-H650; first compound 0.6325 µM): 0.709
- relative viability (NCI-H650; first compound 2 µM): 0.662
- relative viability (NCI-H650; first compound 6.325 µM): 0.619
- relative viability (NCI-H650; first compound 20 µM): 0.279
- relative viability (NCI-H1650; first compound 0.2 µM): 1.04
- relative viability (NCI-H1650; first compound 0.6325 µM): 0.931
- relative viability (NCI-H1650; first compound 2 µM): 0.495
- relative viability (NCI-H1650; first compound 6.325 µM): 0.47
- relative viability (NCI-H1650; first compound 20 µM): 0.156
- relative viability (PC-3 [JPC-3]; first compound 0.2 µM): 0.989
- relative viability (PC-3 [JPC-3]; first compound 0.6325 µM): 1
- relative viability (PC-3 [JPC-3]; first compound 2 µM): 1
- relative viability (PC-3 [JPC-3]; first compound 6.325 µM): 0.768
- relative viability (PC-3 [JPC-3]; first compound 20 µM): 0.451
- relative viability (COR-L23; first compound 0.2 µM): 0.571
- relative viability (COR-L23; first compound 0.6325 µM): 0.621
- relative viability (COR-L23; first compound 2 µM): 0.657
- relative viability (COR-L23; first compound 6.325 µM): 0.461
- relative viability (COR-L23; first compound 20 µM): 0.372
- relative viability (NCI-H1651; first compound 0.2 µM): 0.921
- relative viability (NCI-H1651; first compound 0.6325 µM): 0.878
- relative viability (NCI-H1651; first compound 2 µM): 0.827
- relative viability (NCI-H1651; first compound 6.325 µM): 0.832
- relative viability (NCI-H1651; first compound 20 µM): 0.584
- relative viability (NCI-H2085; first compound 0.2 µM): 0.851
- relative viability (NCI-H2085; first compound 0.6325 µM): 0.85
- relative viability (NCI-H2085; first compound 2 µM): 0.761
- relative viability (NCI-H2085; first compound 6.325 µM): 0.825
- relative viability (NCI-H2085; first compound 20 µM): 0.847
- relative viability (HCC-366; first compound 0.2 µM): 0.552
- relative viability (HCC-366; first compound 0.6325 µM): 0.483
- relative viability (HCC-366; first compound 2 µM): 0.326
- relative viability (HCC-366; first compound 6.325 µM): 0.425
- relative viability (HCC-366; first compound 20 µM): 0.0362
- relative viability (HCC-78; first compound 0.2 µM): 0.322
- relative viability (HCC-78; first compound 0.6325 µM): 0.324
- relative viability (HCC-78; first compound 2 µM): 0.309
- relative viability (HCC-78; first compound 6.325 µM): 0.318
- relative viability (HCC-78; first compound 20 µM): 0.735
- relative viability (H3255; first compound 0.2 µM): 0.911
- relative viability (H3255; first compound 0.6325 µM): 0.847
- relative viability (H3255; first compound 2 µM): 0.774
